Measurements from PubChem BioAssay AID192 (DTP/NCI, 2004).
Values joined by “and” are separate entries in the source; they are usually repeats but may differ in a detail not shown here. Identical values can stand only once. Inconclusive results and toxic doses are left out.

Tested on: BDF1 mice, B16 melanoma ip, median survival T/C
Assay: NCI In Vivo Anticancer Drug Screen. Data for tumor model B16 Melanoma (intraperitoneal) in B6D2F1 (BDF1) mice
Details: endpoint: median survival time, higher = longer survival
In short: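 Read-out: survival or tumor size, given as treated/control ratio. Controls received vehicle only; animals bore transplantable tumors.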

[1] = dose: 1.25 mg/kg/injection, schedule: Q01DX009 (ip), vehicle: saline with Tween-80
[2] = dose: 2.5 mg/kg/injection, schedule: Q01DX009 (ip), vehicle: saline with Tween-80
[3] = dose: 50.0 mg/kg/injection, schedule: Q01DX009 (ip), vehicle: saline
[4] = dose: 100.0 mg/kg/injection, schedule: Q01DX009 (ip), vehicle: saline
[5] = dose: 50.0 mg/kg/injection, schedule: Q01DX009 (ip), vehicle: saline with Tween-80
[6] = dose: 100.0 mg/kg/injection, schedule: Q01DX009 (ip), vehicle: saline with Tween-80
[7] = dose: 200.0 mg/kg/injection, schedule: Q01DX009 (ip), vehicle: saline with Tween-80
[8] = dose: 400.0 mg/kg/injection, schedule: Q01DX009 (ip), vehicle: saline with Tween-80
[9] = dose: 12.5 mg/kg/injection, schedule: Q01DX009 (ip), vehicle: saline
[10] = dose: 25.0 mg/kg/injection, schedule: Q01DX009 (ip), vehicle: saline
[11] = dose: 12.5 mg/kg/injection, schedule: Q01DX009 (ip), vehicle: Klucel (hydroxypropylcellulose) (HPC)
[12] = dose: 12.5 mg/kg/injection, schedule: Q01DX009 (ip), vehicle: saline with Tween-80
[13] = dose: 25.0 mg/kg/injection, schedule: Q01DX009 (ip), vehicle: Klucel (hydroxypropylcellulose) (HPC)
[14] = dose: 25.0 mg/kg/injection, schedule: Q01DX009 (ip), vehicle: saline with Tween-80
[15] = dose: 50.0 mg/kg/injection, schedule: Q01DX009 (ip), vehicle: Klucel (hydroxypropylcellulose) (HPC)
[16] = dose: 100.0 mg/kg/injection, schedule: Q01DX009 (ip), vehicle: Klucel (hydroxypropylcellulose) (HPC)
[17] = dose: 200.0 mg/kg/injection, schedule: Q01DX009 (ip), vehicle: Klucel (hydroxypropylcellulose) (HPC)
[18] = dose: 400.0 mg/kg/injection, schedule: Q01DX009 (ip), vehicle: Klucel (hydroxypropylcellulose) (HPC)

O=C(CBr)c1ccc(I)cc1
T/C [1]: 90 % of control | T/C [2]: 102 % of control | T/C (dose: 5.0 mg/kg/injection, schedule: Q01DX009 (ip), vehicle: saline with Tween-80): 95 % of control | T/C (dose: 10.0 mg/kg/injection, schedule: Q01DX009 (ip), vehicle: saline with Tween-80): 95 % of control | T/C (dose: 20.0 mg/kg/injection, schedule: Q01DX009 (ip), vehicle: saline with Tween-80): 88 % of control

[N-]=[N+]=CC(=O)NCC(=O)NN
T/C (dose: 50.0 mg/kg/injection, schedule: Q01DX009 (ip), vehicle: other): 111 % of control | T/C [3]: 110 % of control | T/C (dose: 100.0 mg/kg/injection, schedule: Q01DX009 (ip), vehicle: other): 106 % of control | T/C [4]: 113 % of control | T/C (dose: 200.0 mg/kg/injection, schedule: Q01DX009 (ip), vehicle: other): 120 % of control | T/C (dose: 200.0 mg/kg/injection, schedule: Q01DX009 (ip), vehicle: saline): 123 % of control | T/C (dose: 300.0 mg/kg/injection, schedule: Q01DX009 (ip), vehicle: other): 166 % of control | T/C (dose: 400.0 mg/kg/injection, schedule: Q01DX009 (ip), vehicle: saline): 150 % of control | T/C (dose: 500.0 mg/kg/injection, schedule: Q01DX009 (ip), vehicle: other): 86 % of control | T/C (dose: 600.0 mg/kg/injection, schedule: Q02DX005 (ip), vehicle: other): 156 % of control

N=N/C(=C\c1c(O)[nH]c2ccccc12)c1ccccc1
T/C [5]: 98 % of control | T/C [6]: 105 % of control | T/C [7]: 98 % of control | T/C [8]: 89 % of control

CCCCCCCCCCCCCCCC(=O)N(CCCN(C)C)CCCN(CCCN(C)C)C(=O)CCCCCCCCCCCCCCC
T/C (dose: 1.56 mg/kg/injection, schedule: Q01DX009 (ip), vehicle: water): 106 % of control | T/C (dose: 3.13 mg/kg/injection, schedule: Q01DX009 (ip), vehicle: water): 101 % of control | T/C (dose: 6.25 mg/kg/injection, schedule: Q01DX009 (ip), vehicle: water): 92 % of control | T/C (dose: 12.5 mg/kg/injection, schedule: Q01DX009 (ip), vehicle: water): 87 % of control

CCC[CH2][Sn]1([CH2]CCC)[O]OC2(CCCCC2)[O]1
T/C [1]: 113 % of control | T/C [2]: 100 % of control

Cc1cc(Cl)ccc1NC(=O)c1ccc([N+](=O)[O-])cc1
T/C [5]: 104 % of control | T/C [6]: 100 % of control | T/C [7]: 103 % of control

CN(C)CCN1c2ccccc2Sc2ccccc21
T/C (dose: 6.25 mg/kg/injection, schedule: Q01DX009 (ip), vehicle: saline): 110 % of control | T/C [9]: 97 % of control | T/C [10]: 92 % of control | T/C [3]: 97 % of control | T/C [4]: 92 % of control

O=C(O)Cc1c(O)ccc2ccccc12
T/C (dose: 25.0 mg/kg/injection, schedule: Q04DX003 (ip), vehicle: gum acacia): 100 % of control | T/C (dose: 50.0 mg/kg/injection, schedule: Q04DX003 (ip), vehicle: gum acacia): 100 % of control | T/C (dose: 100.0 mg/kg/injection, schedule: Q04DX003 (ip), vehicle: gum acacia): 97 % of control

CCCN(C)N=Nc1ccccc1C(=O)O
T/C (dose: 1.56 mg/kg/injection, schedule: Q01DX009 (ip), vehicle: saline with Tween-80): 100 % of control | T/C (dose: 3.12 mg/kg/injection, schedule: Q01DX009 (ip), vehicle: saline with Tween-80): 103 % of control | T/C (dose: 3.13 mg/kg/injection, schedule: Q01DX009 (ip), vehicle: saline with Tween-80): 111 % of control | T/C (dose: 6.25 mg/kg/injection, schedule: Q01DX009 (ip), vehicle: Klucel (hydroxypropylcellulose) (HPC)): 116 % of control | T/C (dose: 6.25 mg/kg/injection, schedule: Q01DX009 (ip), vehicle: saline with Tween-80): 101 % of control and 102 % of control | T/C [11]: 110 % of control | T/C [12]: 98 % of control and 102 % of control and 105 % of control | T/C [13]: 104 % of control | T/C [14]: 102 % of control and 107 % of control and 115 % of control | T/C [15]: 107 % of control | T/C [5]: 100 % of control

O=[N+]([O-])c1ccc2c(c1)sc1cc([N+](=O)[O-])c(Br)cc12
T/C [5]: 102 % of control | T/C [6]: 102 % of control | T/C [7]: 100 % of control | T/C [8]: 90 % of control

Nc1cc(N)cc(Cc2ccccc2)c1
T/C [15]: 101 % of control | T/C [16]: 93 % of control | T/C [17]: 100 % of control

O=CC(O)C(O)C(O)C(O)C(=O)O.[NH-]C1CCCCC1[NH-].[Pt+2] (stereo unspecified)
T/C (dose: 0.2 mg/kg/injection, schedule: Q01DX009 (ip), vehicle: saline): 105 % of control | T/C (dose: 1.56 mg/kg/injection, schedule: Q01DX009 (ip), vehicle: saline): 162 % of control

Cc1ccc(N=C(c2ccc([N+](=O)[O-])cc2)c2ccc([N+](=O)[O-])cc2)cc1
T/C [16]: 111 % of control | T/C [17]: 97 % of control | T/C [18]: 91 % of control

Cc1cc(O)c(C)c(C)c1Cl
T/C [14]: 100 % of control | T/C [5]: 97 % of control | T/C (dose: 50.0 mg/kg/injection, schedule: Q04DX003 (ip), vehicle: saline with Tween-80): 92 % of control | T/C [6]: 97 % of control | T/C (dose: 100.0 mg/kg/injection, schedule: Q04DX003 (ip), vehicle: saline with Tween-80): 95 % of control

CSCCC(C#N)c1ccccc1 (stereo unspecified)
T/C [5]: 88 % of control | T/C [6]: 88 % of control

ClC1C(Cl)C(Cl)C(Cl)C(Cl)C1Cl (stereo unspecified)
T/C [13]: 95 % of control | T/C [14]: 100 % of control | T/C [15]: 105 % of control | T/C [5]: 99 % of control | T/C [16]: 93 % of control | T/C [17]: 93 % of control | T/C [7]: 96 % of control | T/C [8]: 89 % of control

CNC(=O)N(C)c1cc(N(C)C)nc(OC)n1
T/C (dose: 5.0 mg/kg/injection, schedule: Q01DX009 (ip), vehicle: Klucel (hydroxypropylcellulose) (HPC)): 101 % of control | T/C (dose: 10.0 mg/kg/injection, schedule: Q01DX009 (ip), vehicle: Klucel (hydroxypropylcellulose) (HPC)): 93 % of control | T/C (dose: 20.0 mg/kg/injection, schedule: Q01DX009 (ip), vehicle: Klucel (hydroxypropylcellulose) (HPC)): 94 % of control

CCC(=O)c1ccc2c(c1)N(C(C)CN(C)C)c1ccccc1S2 (stereo unspecified)
T/C [9]: 120 % of control | T/C [10]: 110 % of control | T/C [3]: 105 % of control

C[N+](C)(C)CC(=O)[O-]
T/C [3]: 108 % of control | T/C [4]: 101 % of control

Cc1ccc(NC(=O)c2ccc([N+](=O)[O-])cc2)cc1Cl
T/C [13]: 109 % of control | T/C [15]: 99 % of control | T/C [16]: 99 % of control

CC(C)N1C(=O)C=C(c2ccc([N+](=O)[O-])cc2)C1=O
T/C [12]: 95 % of control | T/C [5]: 99 % of control

CCCCCCCCCCCCSCCNC(=O)CCl
T/C [16]: 112 % of control | T/C [17]: 100 % of control | T/C [18]: 96 % of control

O=C(O)c1ccccc1C(=O)OC1CC2C=CC1C21CC1 (stereo unspecified)
T/C [11]: 96 % of control | T/C [13]: 96 % of control | T/C [15]: 93 % of control

CC[C@@H](C)[C@@H]1NC(=O)C(NC(=O)C(CC(C)C)N(C)C(=O)C2CCCN2C(=O)C(C)O)C(C)OC(=O)C(Cc2ccc(OC)cc2)N(C)C(=O)C2CCCN2C(=O)C(CC(C)C)NC(=O)C(C)C(=O)C(C(C)C)OC(=O)C[C@H]1O (stereo partly specified)
T/C (dose: 80.0 micrograms/kg/injection, schedule: Q01DX009 (ip), vehicle: clinical formulation): 161 % of control | T/C (dose: 160.0 micrograms/kg/injection, schedule: Q01DX009 (ip), vehicle: clinical formulation): 160 % of control | T/C (dose: 160.0 micrograms/kg/injection, schedule: Q01DX009 (ip), vehicle: distilled water + alcohol): 160 % of control | T/C (dose: 320.0 micrograms/kg/injection, schedule: Q01DX009 (ip), vehicle: clinical formulation): 153 % of control | T/C (dose: 320.0 micrograms/kg/injection, schedule: Q01DX009 (ip), vehicle: distilled water + alcohol): 172 % of control

CCCCCc1cc(/C=C2/N=C(c3ccc[nH]3)C=C2OC)[nH]c1C
T/C (dose: 0.25 mg/kg/injection, schedule: Q01DX009 (ip), vehicle: saline with Tween-80): 98 % of control | T/C (dose: 0.5 mg/kg/injection, schedule: Q01DX009 (ip), vehicle: saline with Tween-80): 100 % of control | T/C (dose: 1.0 mg/kg/injection, schedule: Q01DX009 (ip), vehicle: saline with Tween-80): 102 % of control | T/C (dose: 2.0 mg/kg/injection, schedule: Q01DX009 (ip), vehicle: saline with Tween-80): 107 % of control | T/C (dose: 4.0 mg/kg/injection, schedule: Q01DX009 (ip), vehicle: saline with Tween-80): 110 % of control

CC1(c2ccccc2)C(C#N)C(=O)NC(=O)C1C#N (stereo unspecified)
T/C [5]: 89 % of control | T/C [6]: 89 % of control | T/C [7]: 89 % of control
